According to ChEMBL document CHEMBL1155936, “Allosteric FBPase inhibitors gain 10(5) times in potency when simultaneously binding two neighboring AMP sites” (Bioorg Med Chem Lett, 2008):

Assays:
[1] = target: T1, Fructose-1,6-bisphosphatase 1 (Homo sapiens, UniProt P09467); test: Inhibition of human liver fructose-1,6-bisphosphatase in presence of fructose-2,6-bisphosphate
T1 sequence (P09467 whole entry): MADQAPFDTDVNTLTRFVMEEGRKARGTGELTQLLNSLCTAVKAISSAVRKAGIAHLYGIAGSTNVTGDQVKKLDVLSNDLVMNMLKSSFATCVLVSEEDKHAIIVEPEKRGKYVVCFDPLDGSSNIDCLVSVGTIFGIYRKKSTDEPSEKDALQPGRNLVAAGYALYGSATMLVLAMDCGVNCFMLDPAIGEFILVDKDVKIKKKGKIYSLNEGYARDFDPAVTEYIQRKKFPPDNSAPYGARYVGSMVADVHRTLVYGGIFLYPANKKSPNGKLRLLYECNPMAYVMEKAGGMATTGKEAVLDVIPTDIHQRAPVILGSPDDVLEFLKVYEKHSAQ

[2] = target: T1, Fructose-1,6-bisphosphatase 1; test: Inhibition of human liver fructose-1,6-bisphosphatase
[3] = Dissociation constant, pKa of the compound; type: physicochemical
[4] = Half life in mouse at 9.68 mg/kg, po; type: ADME, organism-based; design: dose 9.68 mg/kg, route oral; settings: in vivo
[5] = Lipophilicity, Log D at pH 7.4; type: physicochemical; settings: buffer
[6] = Bioavailability in mouse at 9.68 mg/kg, po; type: ADME, organism-based; settings: in vivo
[7] = Half life in mouse at 10 mg/kg, po; type: ADME, organism-based; design: dose 10 mg/kg, route oral; settings: in vivo
[8] = Bioavailability in mouse at 10 mg/kg, po; type: ADME, organism-based; settings: in vivo

Cc1cccc(S(=O)(=O)NC(=O)NCC/C=C/CCNC(=O)NS(=O)(=O)c2cccc(C)c2)c1
IC50 [1]: 0.028 µM | IC50 [2]: 0.068 µM

Cc1cccc(S(=O)(=O)NC(=O)NCCC#CCCNC(=O)NS(=O)(=O)c2cccc(C)c2)c1
IC50 [1]: 0.012 µM | IC50 [2]: 0.095 µM

O=C(NC[C@H]1CC[C@H](CNC(=O)NS(=O)(=O)c2cccc(Cl)c2)CC1)NS(=O)(=O)c1cccc(Cl)c1
IC50 [1]: 0.016 µM | IC50 [2]: 0.028 µM

O=C(NCCCCNC(=O)NS(=O)(=O)c1cccc(Cl)c1)NS(=O)(=O)c1cccc(Cl)c1
IC50 [1]: 0.264 µM | IC50 [2]: 2.75 µM

O=C(NCCCCCNC(=O)NS(=O)(=O)c1cccc(Cl)c1)NS(=O)(=O)c1cccc(Cl)c1
IC50 [1]: 0.019 µM | IC50 [2]: 0.05 µM

Cc1cccc(S(=O)(=O)NC(=O)NCCCCCNC(=O)NS(=O)(=O)c2cccc(C)c2)c1
IC50 [1]: 0.022 µM | IC50 [2]: 0.072 µM

Cc1cccc(S(=O)(=O)NC(=O)NCCOCCNC(=O)NS(=O)(=O)c2cccc(C)c2)c1
IC50 [1]: 0.151 µM | IC50 [2]: 0.827 µM

O=C(NCCCCCCCCNC(=O)NS(=O)(=O)c1cccc(Cl)c1)NS(=O)(=O)c1cccc(Cl)c1
IC50 [1]: 0.017 µM | IC50 [2]: 0.045 µM

O=C(NCC/C=C/CCNC(=O)NS(=O)(=O)c1cccc(Cl)c1)NS(=O)(=O)c1cccc(Cl)c1
IC50 [1]: 0.014 µM | IC50 [2]: 0.04 µM

O=C(NCCCCCCNC(=O)NS(=O)(=O)c1cccc(Cl)c1)NS(=O)(=O)c1cccc(Cl)c1
pKa [3]: 5.35 | IC50 [1]: 0.008 µM | half-life [4]: 1.83 h | logD [5]: -0.93 | bioavailability [6]: 108%

Cc1cccc(S(=O)(=O)NC(=O)NCCCCCCNC(=O)NS(=O)(=O)c2cccc(C)c2)c1
IC50 [1]: 0.012 µM | IC50 [2]: 0.024 µM

CCCCNC(=O)NS(=O)(=O)c1cccc(Cl)c1
IC50 [1]: 134 µM | IC50 [2]: 196 µM

CCCNC(=O)NS(=O)(=O)c1cccc(Cl)c1
IC50 [1]: 234 µM | IC50 [2]: 690 µM

O=C(NCCCCCCCNC(=O)NS(=O)(=O)c1cccc(Cl)c1)NS(=O)(=O)c1cccc(Cl)c1
pKa [3]: 5.12 | IC50 [1]: 0.004 µM | logD [5]: -0.43

Cc1cccc(S(=O)(=O)NC(=O)NCCCCCCCNC(=O)NS(=O)(=O)c2cccc(C)c2)c1
half-life [7]: 3 h | IC50 [1]: 0.005 µM | IC50 [2]: 0.012 µM | bioavailability [8]: 100%

O=C(NCCCNCCCNC(=O)NS(=O)(=O)c1cccc(Cl)c1)NS(=O)(=O)c1cccc(Cl)c1
IC50 [1]: 13.7 µM | IC50 [2]: 43.8 µM

Cc1cccc(S(=O)(=O)NC(=O)NCCNCCNC(=O)NS(=O)(=O)c2cccc(C)c2)c1
IC50 [1]: > 100 µM | IC50 [2]: > 100 µM

Cc1cccc(S(=O)(=O)NC(=O)NCCSSCCNC(=O)NS(=O)(=O)c2cccc(C)c2)c1
IC50 [1]: 0.012 µM | IC50 [2]: 0.029 µM

O=C(NCCCOCCCNC(=O)NS(=O)(=O)c1cccc(Cl)c1)NS(=O)(=O)c1cccc(Cl)c1
IC50 [1]: 0.057 µM | IC50 [2]: 0.125 µM

CCCCNC(=O)NS(=O)(=O)c1cccc(C)c1
IC50 [1]: 86.8 µM | IC50 [2]: 178 µM

Cc1cccc(S(=O)(=O)NC(=O)NCCS)c1
IC50 [1]: 10.6 µM | IC50 [2]: 20.5 µM

O=C(NCc1ccc(CNC(=O)NS(=O)(=O)c2cccc(Cl)c2)cc1)NS(=O)(=O)c1cccc(Cl)c1
IC50 [1]: 0.004 µM | IC50 [2]: 0.006 µM

Cc1cccc(S(=O)(=O)NC(=O)NCc2ccc(CNC(=O)NS(=O)(=O)c3cccc(C)c3)cc2)c1
IC50 [1]: 0.002 µM | IC50 [2]: 0.003 µM

Cc1cccc(S(=O)(=O)NC(=O)NCc2cccc(CNC(=O)NS(=O)(=O)c3cccc(C)c3)c2)c1
IC50 [1]: 0.006 µM | IC50 [2]: 0.012 µM

Cc1cccc(S(=O)(=O)NC(=O)NCCNC(=O)NS(=O)(=O)c2cccc(C)c2)c1
IC50 [1]: > 100 µM | IC50 [2]: > 100 µM

Nc1ccc(S(=O)(=O)NC(=O)NCCS)cc1
IC50 [2]: 1.6 µM

Cc1cccc(S(=O)(=O)NC(=O)NCCCNC(=O)NS(=O)(=O)c2cccc(C)c2)c1
IC50 [1]: 38.5 µM | IC50 [2]: > 100 µM

CSCCNC(=O)NS(=O)(=O)c1cccc(Cl)c1
IC50 [1]: 277 µM | IC50 [2]: 515 µM

CCCNC(=O)NS(=O)(=O)c1cccc(C)c1
IC50 [1]: 320 µM | IC50 [2]: > 1000 µM

Cc1cccc(S(=O)(=O)NC(=O)NCCSCCNC(=O)NS(=O)(=O)c2cccc(C)c2)c1
IC50 [1]: 0.018 µM | IC50 [2]: 0.07 µM

Cc1cccc(S(=O)(=O)NC(=O)NCCCCCCCCNC(=O)NS(=O)(=O)c2cccc(C)c2)c1
IC50 [1]: 0.008 µM | IC50 [2]: 0.035 µM

O=C(NCCSSCCNC(=O)NS(=O)(=O)c1cccc(Cl)c1)NS(=O)(=O)c1cccc(Cl)c1
IC50 [1]: 0.01 µM | IC50 [2]: 0.055 µM

Cc1cccc(S(=O)(=O)NC(=O)NCCCCNC(=O)NS(=O)(=O)c2cccc(C)c2)c1
IC50 [1]: 0.542 µM | IC50 [2]: 3.4 µM
